Article PMC12567349, “Design and Optimization of Spiro-Isatin-Thiazolidinone Hybrids with Promising Anticancer Activity” (Pharmaceuticals, 2025)

Legend:
Format in all cases: cell-based
[1] = test system: HCT116 cells; test: MTT assay, 72 h, HCT116; conditions: Homo sapiens, HCT-116, mean ± SD
Protocol: (§1) The cytotoxic potential of the synthesized compounds was investigated using the MTT assay after 72 h incubation with a panel of human and murine cancer cell lines, including colorectal carcinoma (HCT116), estrogen receptor-positive breast adenocarcinoma (MCF-7), triple-negative breast adenocarcinoma (MDA-MB-231), epidermoid carcinoma (KB3-1), myeloid leukemia (K562), and glioblastoma (U373), and mouse breast carcinoma (4T1) cells. To assess the selectivity of the compounds, pseudo-normal cell lines—human keratinocytes (HaCaTs) and mouse fibroblasts (NIH3T3s)—were also tested under the same conditions.
(§2) Human breast adenocarcinoma cells of MCF-7 and MDA-MB-231 lines, human glioblastoma cells of U373 line, human chronic myelogenous leukemia cells of K562 line, human colorectal carcinoma cells of HCT116 line, and human epidermoid carcinoma cells of KB3-1 line were kindly donated by a Collection of the Institute for Cancer Research at Vienna Medical University (Vienna, Austria). Human keratinocytes of HaCaT line, murine breast carcinoma cells of 4T1 line, and murine fibroblasts of the NIH3T3 line were obtained from the Cell Collection of the R.E. Kavetsky Institute of Experimental Pathology, Oncology and Radiobiology of the National Academy of Sciences of Ukraine (Kyiv, Ukraine). MCF-7, MDA-MB-231, U373, K562, HaCaT, and NIH3T3 cells were cultured in DMEM medium (Sigma-Aldrich, Burlington, MA, USA) supplemented with 2 mM L-glutamine, 4500 mg/L glucose, and 1 mM sodium pyruvate. HCT116 and KB3-1 cells were maintained in RPMI-1640 medium supplemented with 2 mM L-glutamine (Sigma-Aldrich, USA). Both media were supplemented with 10% fetal bovine serum (Sigma-Aldrich, USA). All cell lines were incubated at 37 °C in a humidified atmosphere containing 5% CO2.
(§3) The substrate cells were seeded at a density of 5000 cells per 100 µL, while suspension K562 cells were seeded at 15,000 cells per 100 µL in 96-well plates and incubated overnight. Doxorubicin (Dox, Sigma-Aldrich, USA) was used as a reference drug. Studied substances were then added in 100 µL of culture medium, and the cells were further incubated for 72 h. Subsequently, 20 µL of MTT solution (5 mg/mL, Sigma-Aldrich, USA) was added to each well and incubated for 2–4 h. Formazan crystals were then solubilized by adding dimethyl sulfoxide (Sigma-Aldrich, USA). Absorbance was measured using a BioTek ELx800 Absorbance Reader (BioTek Instruments, Inc., Winooski, VT, USA). The results were analyzed and illustrated using GraphPad Prism (version 8.0.1; GraphPad Software, San Diego, CA, USA) and presented as a mean (M) ± standard deviation (SD). The IC50 values of the compounds were determined using nonlinear regression analysis in GraphPad Prism 10.4.2 [40].

[2] = test system: MCF-7 cells; test: MTT assay, 72 h, MCF-7; conditions: Homo sapiens, MCF7, mean ± SD
Protocol: as §1, §2
as §3, with “Doxorubicin (Dox, Sigma-Aldrich, USA) was used as a reference drug.” left out

[3] = test system: MDA-MB-231 cells; test: MTT assay, 72 h, MDA-MB-231; conditions: Homo sapiens, mean ± SD
Protocol: as §1, §2, §3

[4] = test system: 4T1 cells; test: MTT assay, 72 h, 4T1; conditions: Mus musculus, mean ± SD
Protocol: as §1, §2, §3

[5] = test system: KB3-1 cells; test: MTT assay, 72 h, KB3-1; conditions: Homo sapiens, KB 3-1, mean ± SD
Protocol: as §1, §2, §3

[6] = test system: K562 cells; test: MTT assay, 72 h, K562; conditions: Homo sapiens, mean ± SD
Protocol: as §1, §2, §3

[7] = test system: U373 cells; test: MTT assay, 72 h, U373; conditions: Homo sapiens, U373 MG, mean ± SD
Protocol: as §1, §2, §3

[8] = test system: HaCaT cells; test: MTT assay, 72 h, HaCaT (pseudo-normal); conditions: Homo sapiens, mean ± SD
Protocol: as §1, §2, §3

[9] = test system: NIH3T3 cells; test: MTT assay, 72 h, NIH3T3 (pseudo-normal); conditions: Mus musculus, mean ± SD
Protocol: as §1, §2, §3

Structure (SMILES)	IC50 [1] [µM]	IC50 [2] [µM]	IC50 [3] [µM]	IC50 [4] [µM]	IC50 [5] [µM]	IC50 [6] [µM]	IC50 [7] [µM]	IC50 [8] [µM]	IC50 [9] [µM]
COc1ccc(N2C(=O)CSC23C(=O)Nc2ccc(Cl)cc23)cc1 (centres unmarked) [Compound 1, 5-Chloro-3′-(4-methoxyphenyl)spiro[indoline-3,2′-thiazolidine]-2,4′-dione]	> 100	> 100	85.3 ± 1.15	89.4 ± 1.93	62.3 ± 0.51	71.8 ± 7.79	76.7 ± 0.54	96.7 ± 1.02	77.6 ± 1.82
O=C1CSC2(C(=O)Nc3ccc(Cl)cc32)N1c1ccc(Cl)cc1 (centres unmarked) [Compound 2, 5-Chloro-3′-(4-chlorophenyl)spiro[indoline-3,2′-thiazolidine]-2,4′-dione]	> 100	84.9 ± 6.51	62.69 ± 0.22	73 ± 7.02	51.77 ± 0.26	9.96 ± 1.17	77.91 ± 0.56	82.8 ± 1.94	98.25 ± 0.64
O=C1CSC2(C(=O)Nc3ccc(Br)cc32)N1c1ccc(Br)cc1 (centres unmarked) [Compound 3, 5-Bromo-3′-(4-bromophenyl)spiro[indoline-3,2′-thiazolidine]-2,4′-dione]	88.9 ± 6.33	64 ± 4.77	56.5 ± 1.93	43.8 ± 1.76	46.7 ± 0.54	7.99 ± 0.12	49.4 ± 1.33	38.4 ± 0.77	82.9 ± 2.05
O=C1CSC2(C(=O)Nc3ccc(F)cc32)N1Cc1ccccc1 (centres unmarked) [Compound 4, 3′-Benzyl-5-fluorospiro[indoline-3,2′-thiazolidine]-2,4′-dione]	> 100	> 100	99.21 ± 0.41	91.8 ± 1.55	60.2 ± 0.72	88.8 ± 4.06	98.6 ± 1.92	> 100	> 100
O=C1CSC2(C(=O)Nc3ccc(Cl)cc32)N1Cc1ccccc1 (centres unmarked) [Compound 5, 3′-Benzyl-5-chlorospiro[indoline-3,2′-thiazolidine]-2,4′-dione]	92.8 ± 1.09	42.6 ± 1.24	68.79 ± 0.62	95.3 ± 1.07	52.1 ± 0.67	95.5 ± 2.64	76.2 ± 0.8	> 100	> 100
COc1ccc(N2C(=O)/C(=C/C=C/c3ccccc3)SC23C(=O)Nc2ccc(Cl)cc23)cc1 (centres unmarked) [Compound 6, (Z)-5-Chloro-3′-(4-methoxyphenyl)-5′-((E)-3-phenylallylidene)spiro[indoline-3,2′-thiazolidine]-2,4′-dione]	> 100	83.3 ± 6.03	55.9 ± 5.67	68 ± 2.6	45.23 ± 0.36	> 100	69.5 ± 0.9	85.3 ± 1.27	> 100
COc1ccc(N2C(=O)/C(=C/c3ccc(Cl)cc3)SC23C(=O)Nc2ccc(Cl)cc23)cc1 (centres unmarked) [Compound 7, (Z)-5-Chloro-5′-(4-chlorobenzylidene)-3′-(4-methoxyphenyl)spiro[indoline-3,2′-thiazolidine]-2,4′-dione]	> 100	52.2 ± 2.15	8.55 ± 0.06	29 ± 0.92	17.2 ± 0.21	27.7 ± 3.02	72.3 ± 0.8	8.63 ± 0.57	79.7 ± 0.93
CCOc1ccc(/C=C2\SC3(C(=O)Nc4ccc(Cl)cc43)N(c3ccc(Cl)cc3)C2=O)cc1 (centres unmarked) [Compound 9, (Z)-5-Chloro-3′-(4-chlorophenyl)-5′-(4-ethoxybenzylidene)spiro[indoline-3,2′-thiazolidine]-2,4′-dione]	> 100	74.5 ± 4.73	7.89 ± 0.33	7.84 ± 0.49	22.3 ± 1.17	67.1 ± 0.7	98.22 ± 0.87	> 100	> 100
O=C1/C(=C/c2ccc(N3CCOCC3)cc2)SC2(C(=O)Nc3ccc(Cl)cc32)N1c1ccc(Cl)cc1 (centres unmarked) [Compound 10, (Z)-5-Chloro-3′-(4-chlorophenyl)-5′-(4-morpholinobenzylidene)spiro[indoline-3,2′-thiazolidine]-2,4′-dione]	> 100	> 100	> 100	> 100	16.9 ± 0.86	> 100	> 100	> 100	> 100
O=C1/C(=C/c2ccc(Cl)cc2)SC2(C(=O)Nc3ccc(Cl)cc32)N1c1ccc(Cl)cc1 (centres unmarked) [Compound 11, (Z)-5-Chloro-5′-(4-chlorobenzylidene)-3′-(4-chlorophenyl)spiro[indoline-3,2′-thiazolidine]-2,4′-dione]	> 100	6 ± 0.28	6.37 ± 0.11	5.66 ± 0.27	6.95 ± 0.14	74.35 ± 0.66	66.9 ± 0.83	8.67 ± 0.49	> 100
COc1ccc(N2C(=O)/C(=C/c3ccc(-c4ccccn4)cc3)SC23C(=O)Nc2ccc(Cl)cc23)cc1 (centres unmarked) [Compound 12, (Z)-5-Chloro-3′-(4-methoxyphenyl)-5′-(4-(pyridin-2-yl)benzylidene)spiro[indoline-3,2′-thiazolidine]-2,4′-dione]	> 100	> 100	> 100	> 100	0.97 ± 0.11	> 100	> 100	> 100	> 100
O=C1/C(=C/c2ccc(-c3ccccn3)cc2)SC2(C(=O)Nc3ccc(Cl)cc32)N1c1ccc(Cl)cc1 (centres unmarked) [Compound 13, (Z)-5-Chloro-3′-(4-chlorophenyl)-5′-(4-(pyridin-2-yl)benzylidene)spiro[indoline-3,2′-thiazolidine]-2,4′-dione]	41.4 ± 0.62	> 100	> 100	> 100	0.99 ± 0.08	5.55 ± 0.17	> 100	> 100	> 100
CC(C)(C)c1ccc(/C=C2\SC3(C(=O)Nc4ccc(Cl)cc43)N(c3ccc(Cl)cc3)C2=O)cc1 (centres unmarked) [Compound 15, (Z)-5′-(4-(Tert-butyl)benzylidene)-5-chloro-3′-(4-chlorophenyl)spiro[indoline-3,2′-thiazolidine]-2,4′-dione]	> 100	77.4 ± 2.9	30.7 ± 0.45	46.6 ± 2.98	9.77 ± 0.78	> 100	79.3 ± 1.31	> 100	90.32 ± 0.68
CC(C)(C)c1ccc(/C=C2\SC3(C(=O)Nc4ccc(Br)cc43)N(c3ccc(Br)cc3)C2=O)cc1 (centres unmarked) [Compound 16, (Z)-5-Bromo-3′-(4-bromophenyl)-5′-(4-(tert-butyl)benzylidene)spiro[indoline-3,2′-thiazolidine]-2,4′-dione]	> 100	> 100	53.27 ± 0.51	69 ± 5.11	29.5 ± 0.33	> 100	> 100	> 100	> 100
COc1cccc2c1C(=O)c1c(O)c3c(c(O)c1C2=O)C[C@@](O)(C(=O)CO)C[C@@H]3O[C@H]1C[C@H](N)[C@H](O)[C@H](C)O1 [Dox, Doxorubicin, reference compound]	0.9 ± 0.11	–	0.6 ± 0.08	0.73 ± 0.1	0.53 ± 0.08	0.95 ± 0.11	0.35 ± 0.09	3.1 ± 0.18	0.63 ± 0.12
